molecular target: T1, USP28 (His-tagged USP28-FL-mammalian) (Homo sapiens, UniProt Q96RU2); assay: Ubiquitin-Rhodamine 110 Assay for USP28 Activity, Example A-1(a); format: biochemical; details: Ubiquitin-Rhodamine 110 assay, Example A-1(a); read-out: USP28 A-1(a) IC50 range
T1 construct: Expression of USP28 (1-1077)-TEV-6*His (pTT5 vector); made in house; host or cells: Expi293f cells (pTT5 vector)
T1 sequence (Q96RU2 1-1077): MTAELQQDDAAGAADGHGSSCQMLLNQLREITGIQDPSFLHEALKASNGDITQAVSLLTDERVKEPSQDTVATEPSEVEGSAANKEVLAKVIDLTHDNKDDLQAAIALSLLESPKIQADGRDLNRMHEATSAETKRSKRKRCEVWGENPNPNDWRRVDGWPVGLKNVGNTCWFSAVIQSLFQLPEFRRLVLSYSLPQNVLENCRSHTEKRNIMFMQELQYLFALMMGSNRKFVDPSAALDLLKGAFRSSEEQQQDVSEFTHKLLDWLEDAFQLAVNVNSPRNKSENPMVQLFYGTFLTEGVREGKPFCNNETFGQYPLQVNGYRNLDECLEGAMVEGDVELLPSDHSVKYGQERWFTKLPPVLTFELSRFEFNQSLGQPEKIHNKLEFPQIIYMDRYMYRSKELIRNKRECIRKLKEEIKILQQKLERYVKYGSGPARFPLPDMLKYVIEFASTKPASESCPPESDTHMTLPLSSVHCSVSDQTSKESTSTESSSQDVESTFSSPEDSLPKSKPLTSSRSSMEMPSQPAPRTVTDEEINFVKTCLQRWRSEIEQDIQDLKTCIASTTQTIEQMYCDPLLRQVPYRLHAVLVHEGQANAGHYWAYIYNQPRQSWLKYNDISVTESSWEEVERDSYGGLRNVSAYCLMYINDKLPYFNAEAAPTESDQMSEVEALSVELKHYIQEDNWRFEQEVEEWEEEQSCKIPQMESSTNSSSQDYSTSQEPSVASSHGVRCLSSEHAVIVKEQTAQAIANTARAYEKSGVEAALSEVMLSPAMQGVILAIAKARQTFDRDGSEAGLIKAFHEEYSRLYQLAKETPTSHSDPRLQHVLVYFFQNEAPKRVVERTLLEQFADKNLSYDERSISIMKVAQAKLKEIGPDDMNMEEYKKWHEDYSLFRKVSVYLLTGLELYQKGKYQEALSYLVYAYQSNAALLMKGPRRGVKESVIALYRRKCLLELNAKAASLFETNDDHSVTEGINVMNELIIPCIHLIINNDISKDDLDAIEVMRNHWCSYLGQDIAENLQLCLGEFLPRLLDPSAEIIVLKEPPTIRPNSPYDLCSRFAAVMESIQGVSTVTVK
In short: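 Full-length His-tagged human USP28 (1-1077, Expi293f-expressed), […], with 25 nM Ub-Rh110 (<<Km) in pH 8.0 Tris buffer with BME, BGG, Triton X-100. 10-point dilutions (25 μM-1.3 nM), 45 min at room temperature, citric acid stop, fluorescence 485/535 nm; IC50 by 4-parameter fit.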

| SMILES | IC50 [nM] |
| --- | --- |
| Cc1ccc2c(N)c(C(=O)N[C@H]3COc4cc(C5(F)CCNCC5)ccc4C3)sc2n1 [Example 8-1, (R)-3-Amino-N-(7-(4-fluoropiperidin-4-yl)chroman-3-yl)-6-methylthieno[2,3-b]pyridine-2-carboxamide] | 1 to 50 |
| Cc1ccc2c(N)c(C(=O)N[C@H]3COc4cc(N5CCNCC5)cc(F)c4C3)sc2n1 [Example 10-1, (R)-3-amino-N-(5-fluoro-7-(piperazin-1-yl)chroman-3-yl)-6-methylthieno[2,3-b]pyridine-2-carboxamide] | 1 to 50 |
| CO[C@@H]1CN(c2cc(F)c3c(c2)OC[C@H](NC(=O)c2sc4nc(C)ccc4c2N)C3)C[C@H]1N [Example 10-2, 3-amino-N-((R)-7-((3R,4R)-3-amino-4-methoxypyrrolidin-1-yl)-5-fluorochroman-3-yl)-6-methylthieno[2,3-b]pyridine-2-carboxamide] | 1 to 50 |
| [2H]C1([2H])NC([2H])([2H])C([2H])([2H])N(c2cc(F)c3c(c2)OC[C@H](NC(=O)c2sc4nc(C)ccc4c2N)C3)C1([2H])[2H] [Example 10-4, (R)-3-amino-N-(5-fluoro-7-(piperazin-l-yl-2,2,3,3,5,5,6,6-d8)chroman-3-yl)-6-methylthieno[2,3-b]pyridine-2-carboxamide] | 1 to 50 |
| Cc1ccc2c(N)c(C(=O)N[C@@H]3COc4cc(N5CCNCC5)cc(F)c4C3)sc2n1 [Example 10-5, (S)-3-amino-N-(5-fluoro-7-(piperazin-1-yl)chroman-3-yl)-6-methylthieno[2,3-b]pyridine-2-carboxamide] | 200 to 2000 |
| Cc1ccc2c(N)c(C(=O)N[C@H]3COc4cc(N5CC6CNCC(C5)O6)cc(F)c4C3)sc2n1 [Example 10-6, N-((3R)-7-(9-oxa-3,7-diazabicyclo[3.3.1]nonan-3-yl)-5-fluorochroman-3-yl)-3-amino-6-methylthieno[2,3-b]pyridine-2-carboxamide] | 1 to 50 |
| Cc1cc(C)c2c(N)c(C(=O)N[C@H]3COc4cc(N5CC6CC(C5)N6)cc(F)c4C3)sc2n1 [Example 10-7, N-((3R)-7-(3,6-diazabicyclo[3.1.1]heptan-3-yl)-5-fluorochroman-3-yl)-3-amino-4,6-dimethylthieno[2,3-b]pyridine-2-carboxamide] | 1 to 50 |
| Cc1cnc2c(N)c(C(=O)N[C@H]3COc4cc(N5CC6CC(C5)N6)cc(F)c4C3)sc2n1 [Example 10-8, N-((3R)-7-(3,6-diazabicyclo[3.1.1]heptan-3-yl)-5-fluorochroman-3-yl)-7-amino-3-methylthieno[2,3-b]pyrazine-6-carboxamide] | 1 to 50 |
| Cc1cc(C)c2c(N)c(C(=O)N[C@H]3COc4cc(N5CCNCC5)cc(F)c4C3)sc2n1 [Example 10-9, (R)-3-amino-N-(5-fluoro-7-(piperazin-1-yl)chroman-3-yl)-4,6-dimethylthieno[2,3-b]pyridine-2-carboxamide] | 1 to 50 |
| Cc1cnc2c(N)c(C(=O)N[C@H]3COc4cc(N5CCNCC5)cc(F)c4C3)sc2n1 [Example 10-10, (R)-7-amino-N-(5-fluoro-7-(piperazin-1-yl)chroman-3-yl)-3-methylthieno[2,3-b]pyrazine-6-carboxamide] | 1 to 50 |
| COc1ccc2c(N)c(C(=O)N[C@H]3COc4cc(N5CCNCC5)cc(F)c4C3)sc2n1 [Example 10-11, (R)-3-amino-N-(5-fluoro-7-(piperazin-1-yl)chroman-3-yl)-6-methoxythieno[2,3-b]pyridine-2-carboxamide] | 1 to 50 |
| Cc1cnc2c(N)c(C(=O)N[C@H]3COc4cc(N5CC6CNCC(C5)O6)cc(F)c4C3)sc2n1 [Example 10-12, N-((3R)-7-(9-oxa-3,7-diazabicyclo[3.3.1]nonan-3-yl)-5-fluorochroman-3-yl)-7-amino-3-methylthieno[2,3-b]pyrazine-6-carboxamide] | 1 to 50 |
| Cc1cc(C)c2c(N)c(C(=O)N[C@H]3COc4cc(N5CC6CNCC(C5)O6)cc(F)c4C3)sc2n1 [Example 10-13, N-((3R)-7-(9-oxa-3,7-diazabicyclo[3.3.1]nonan-3-yl)-5-fluorochroman-3-yl)-3-amino-4,6-dimethylthieno[2,3-b]pyridine-2-carboxamide] | 1 to 50 |
| Cc1cc(C(F)(F)F)c2c(N)c(C(=O)N[C@H]3COc4cc(N5CCNCC5)cc(F)c4C3)sc2n1 [Example 10-14, (R)-3-amino-N-(5-fluoro-7-(piperazin-1-yl)chroman-3-yl)-6-methyl-4-(trifluoromethyl)thieno[2,3-b]pyridine-2-carboxamide] | 1 to 50 |
| Cc1ccc2c(N)c(C(=O)N(C)[C@H]3COc4cc(N5CCNCC5)cc(F)c4C3)sc2n1 [Example 10-15, 3-amino-N-[(3R)-5-fluoro-7-(piperazin-1-yl)-3,4-dihydro-2H-1-benzopyran-3-yl)-N,6-dimethylthieno[2,3-b]pyridine-2-carboxamide] | > 2000 |
| Cc1ccc2c(N)c(C(=O)N[C@H]3CCc4cc(N5CC6CCC(C5)N6)ccc4C3)sc2n1 [Example 11-1, N-((2S)-6-(3,8-diazabicyclo[3.2.1]octan-3-yl)-1,2,3,4-tetrahydronaphthalen-2-yl)-3-amino-6-methylthieno[2,3-b]pyridine-2-carboxamide] | 1 to 50 |
| Cc1ccc2c(N)c(C(=O)N[C@@H]3CCc4cc(N5CC6CCC(C5)N6)ccc4C3)sc2n1 [Example 11-2, N-((2R)-6-(3,8-diazabicyclo[3.2.1]octan-3-yl)-1,2,3,4-tetrahydronaphthalen-2-yl)-3-amino-6-methylthieno[2,3-b]pyridine-2-carboxamide] | 50 to 200 |

same assay, conditions: Ubiquitin-Rhodamine 110 assay, format Example A-1(a); read-out: USP28 A-1(a) IC50 range

| SMILES | IC50 [nM] |
| --- | --- |
| Cc1ccc2c(N)c(C(=O)N[C@@H]3CCc4cc(N5CCNCC5)c(F)cc4C3)sc2n1 (single isomer, unassigned) [Example 21-7] | 50 to 200 |
| Cc1ccc2c(N)c(C(=O)N[C@H]3CCc4cc(N5CCNCC5)c(F)cc4C3)sc2n1 (single isomer, unassigned) [Example 21-8] | 200 to 2000 |
| Cc1ccc2c(N)c(C(=O)N[C@H]3CCc4c(F)c(N5CCNCC5)cc(F)c4C3)sc2n1 (single isomer, unassigned) [Example 22-1] | 200 to 2000 |
| Cc1ccc2c(N)c(C(=O)N[C@@H]3CCc4c(F)c(N5CCNCC5)cc(F)c4C3)sc2n1 (single isomer, unassigned) [Example 22-2] | 1 to 50 |
| Cc1ccc2c(N)c(C(=O)N[C@H]3CCc4c(F)c(N5CC6CNCC(C5)O6)cc(F)c4C3)sc2n1 (single isomer, unassigned) [Example 22-3] | 200 to 2000 |
| Cc1ccc2c(N)c(C(=O)N[C@@H]3CCc4c(F)c(N5CC6CNCC(C5)O6)cc(F)c4C3)sc2n1 (single isomer, unassigned) [Example 22-4] | 1 to 50 |
| Cc1ccc2c(N)c(C(=O)N[C@@H]3CCc4c(F)c(N5CC6CCC(C5)N6)cc(F)c4C3)sc2n1 (single isomer, unassigned) [Example 22-6] | 200 to 2000 |
| CO[C@H]1CN(c2ccc3c(n2)CC[C@H](NC(=O)c2sc4nc(C)cnc4c2N)C3)C[C@@H]1N (single isomer, unassigned) [Example 23-1] | 200 to 2000 |
| CO[C@H]1CN(c2ccc3c(n2)CC[C@@H](NC(=O)c2sc4nc(C)cnc4c2N)C3)C[C@@H]1N (single isomer, unassigned) [Example 23-2] | > 2000 |
| Cc1ccc2c(N)c(C(=O)N[C@H]3COc4cc(N5CC6CCC(C5)N6)c(F)c(F)c4C3)sc2n1 [Example 13-3, N-((3R)-7-(3,8-diazabicyclo[3.2.1]octan-3-yl)-5,6-difluorochroman-3-yl)-3-amino-6-methylthieno[2,3-b]pyridine-2-carboxamide] | 200 to 2000 |
| Cc1ccc2c(N)c(C(=O)N[C@@H]3COc4cc(N5CC6CCC(C5)N6)c(F)c(F)c4C3)sc2n1 [Example 13-4, N-((3S)-7-(3,8-diazabicyclo[3.2.1]octan-3-yl)-5,6-difluorochroman-3-yl)-3-amino-6-methylthieno[2,3-b]pyridine-2-carboxamide] | 1 to 50 |
| Cc1ccc2c(N)c(C(=O)N[C@H]3COc4cc(N5CCNCC5)c(Cl)cc4C3)sc2n1 [Example 13-5, (R)-3-amino-N-(6-chloro-7-(piperazin-1-yl)chroman-3-yl)-6-methylthieno[2,3-b]pyridine-2-carboxamide] | > 2000 |

— patent US11524966B1 (Valo Early Discovery, Inc., priority 2017, dated 2022)
